Measurements as given in BindingDB's records for doi:10.1021/jm010999g (2002).

molecular target: T1, ATP-binding cassette sub-family C member 9 (Rattus norvegicus, UniProt Q63563); experiment: Binding affinity to the sulfonylurea receptor 2A (SUR2A) in purified membranes of rat-heart myocytes
T1 sequence (Q63563 whole entry): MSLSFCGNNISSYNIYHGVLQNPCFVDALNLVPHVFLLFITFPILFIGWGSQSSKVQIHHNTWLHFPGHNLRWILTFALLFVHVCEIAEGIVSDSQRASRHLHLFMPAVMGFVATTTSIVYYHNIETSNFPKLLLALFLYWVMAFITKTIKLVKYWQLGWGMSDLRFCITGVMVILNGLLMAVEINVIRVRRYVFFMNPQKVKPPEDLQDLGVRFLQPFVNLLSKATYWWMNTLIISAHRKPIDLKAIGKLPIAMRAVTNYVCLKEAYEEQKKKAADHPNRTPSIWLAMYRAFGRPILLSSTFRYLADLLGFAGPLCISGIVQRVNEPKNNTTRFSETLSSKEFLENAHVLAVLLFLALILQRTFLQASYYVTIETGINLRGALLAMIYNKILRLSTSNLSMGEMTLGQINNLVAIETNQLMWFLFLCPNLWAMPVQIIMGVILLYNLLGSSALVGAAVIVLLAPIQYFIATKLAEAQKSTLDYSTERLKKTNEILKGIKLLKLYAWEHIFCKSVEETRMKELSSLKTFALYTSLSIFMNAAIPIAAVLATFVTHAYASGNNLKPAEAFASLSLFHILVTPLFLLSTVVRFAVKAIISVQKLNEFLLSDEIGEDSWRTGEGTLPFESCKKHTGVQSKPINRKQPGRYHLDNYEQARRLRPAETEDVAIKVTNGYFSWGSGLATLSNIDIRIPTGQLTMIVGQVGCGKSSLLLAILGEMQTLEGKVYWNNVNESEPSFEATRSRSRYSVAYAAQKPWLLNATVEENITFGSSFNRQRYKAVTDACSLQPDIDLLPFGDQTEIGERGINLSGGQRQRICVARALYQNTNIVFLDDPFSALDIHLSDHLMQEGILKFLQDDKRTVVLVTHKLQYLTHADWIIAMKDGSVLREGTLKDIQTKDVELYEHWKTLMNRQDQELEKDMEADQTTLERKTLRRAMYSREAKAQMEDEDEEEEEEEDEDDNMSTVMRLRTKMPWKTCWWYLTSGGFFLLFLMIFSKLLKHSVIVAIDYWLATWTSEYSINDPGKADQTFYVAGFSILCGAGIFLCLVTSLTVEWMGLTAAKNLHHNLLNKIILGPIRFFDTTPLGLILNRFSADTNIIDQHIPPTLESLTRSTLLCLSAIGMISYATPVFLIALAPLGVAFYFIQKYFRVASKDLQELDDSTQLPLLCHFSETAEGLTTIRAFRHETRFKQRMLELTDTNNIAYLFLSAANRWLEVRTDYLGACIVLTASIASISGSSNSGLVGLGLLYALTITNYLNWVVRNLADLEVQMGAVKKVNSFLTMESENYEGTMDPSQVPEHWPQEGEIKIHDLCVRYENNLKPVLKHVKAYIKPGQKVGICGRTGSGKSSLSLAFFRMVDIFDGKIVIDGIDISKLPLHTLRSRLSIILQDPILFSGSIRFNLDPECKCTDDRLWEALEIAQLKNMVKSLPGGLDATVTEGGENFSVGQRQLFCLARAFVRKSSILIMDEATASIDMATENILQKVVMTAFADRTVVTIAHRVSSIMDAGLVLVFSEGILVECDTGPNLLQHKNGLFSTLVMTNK

Row | SMILES | Kd [nM]
1 | CC(C)NS(=O)(=O)c1ccc2c(c1)C(n1ccccc1=O)=CC(C)(C)O2 | 6610
2 | CC1(C)C=C(n2ccccc2=O)c2cc(S(=O)(=O)Nc3ccc([N+](=O)[O-])cc3)ccc2O1 | 4470
3 | CC1(C)C=C(n2ccccc2=O)c2cc(S(=O)(=O)Nc3ccc(C#N)cc3)ccc2O1 | 3160
4 | CC1(C)C=C(n2ccccc2=O)c2cc(S(=O)(=O)NCc3ccccc3)ccc2O1 | 5250
5 | CC1(C)C=C(n2ccccc2=O)c2cc(S(=O)(=O)NC(=O)NC3CCCCC3)ccc2O1 | 5620
6 | CC1(C)C=C(n2ccccc2=O)c2cc(S(=O)(=O)NCCO)ccc2O1 | 692
7 | CC1(C)C=C(n2ccccc2=O)c2cc(S(=O)(=O)N3CCOCC3)ccc2O1 | 363
8 | CC1(C)C=C(n2ccccc2=O)c2cc(S(=O)(=O)NC(=O)Nc3ccccc3)ccc2O1 | 2820
9 | CC1(C)C=C(n2ccccc2=O)c2cc(S(=O)(=O)Nc3ccc(Br)cc3)ccc2O1 | 1700
10 | COc1ccc(NS(=O)(=O)c2ccc3c(c2)C(n2ccccc2=O)=CC(C)(C)O3)cc1 | 537
11 | CC1(C)C=C(n2ccccc2=O)c2cc(S(=O)(=O)NC3CCCC3)ccc2O1 | 1410
12 | CC1(C)C=C(n2ccccc2=O)c2cc(S(=O)(=O)F)ccc2O1 | 15

The remaining compounds from weak to strong by Kd, led by results:

Row | Kd [nM] | SMILES
13 | 355 | CCN(CC)S(=O)(=O)c1ccc2c(c1)C(n1ccccc1=O)=CC(C)(C)O2
14 | 316 | CC1(C)C=C(n2ccccc2=O)c2cc(S(N)(=O)=O)ccc2O1
15 | 200 | CCNS(=O)(=O)c1ccc2c(c1)C(n1ccccc1=O)=CC(C)(C)O2
16 | 138 | CC1(C)C=C(n2ccccc2=O)c2cc(S(=O)(=O)Nc3ccccc3Br)ccc2O1
17 | 138 | CC1(C)C=C(n2ccccc2=O)c2cc(S(=O)(=O)c3ccccc3)ccc2O1
18 | 123 | CN(C)S(=O)(=O)c1ccc2c(c1)C(n1ccccc1=O)=CC(C)(C)O2
19 | 66 | CNS(=O)(=O)c1ccc2c(c1)C(n1ccccc1=O)=CC(C)(C)O2
20 | 56 | CC1(C)C=C(n2ccccc2=O)c2cc(C#N)ccc2O1 [Bimakalim]
21 | 27 | CC1(C)Oc2ccc(S(=O)(=O)c3ccccc3)cc2[C@@H](N2CCCC2=O)[C@@H]1O [Rilmakalim]
22 | 23 | CC1(C)C=C(n2ccccc2=O)c2cc(S(=O)(=O)Nc3ccccc3F)ccc2O1
23 | 20 | CN(c1ccccc1)S(=O)(=O)c1ccc2c(c1)C(n1ccccc1=O)=CC(C)(C)O2
24 | 19 | [2H]c1c([2H])c([2H])c(NS(=O)(=O)c2ccc3c(c2)C(n2ccccc2=O)=CC(C)(C)O3)c([2H])c1[2H]
25 | 17 | CC1(C)C=C(n2ccccc2=O)c2cc(S(=O)(=O)Oc3ccccc3)ccc2O1
26 | 15 | CC1(C)C=C(n2ccccc2=O)c2cc(S(=O)(=O)N=[N+]=[N-])ccc2O1
27 | 15 | CC1(C)C=C(n2ccccc2=O)c2cc(S(=O)(=O)Nc3ccccc3)ccc2O1

molecular target: T1, ATP-binding cassette sub-family C member 9; experiment: Binding affinity towards Sulfonylurea receptor 2B (SUR2B) in cultured rat aortic smooth muscle cells (SMC)

Row | SMILES | Kd [nM]
28 | CC(C)NS(=O)(=O)c1ccc2c(c1)C(n1ccccc1=O)=CC(C)(C)O2 | 8320
29 | CC1(C)C=C(n2ccccc2=O)c2cc(S(=O)(=O)Nc3ccc([N+](=O)[O-])cc3)ccc2O1 | 1590
30 | CC1(C)C=C(n2ccccc2=O)c2cc(S(=O)(=O)Nc3ccc(C#N)cc3)ccc2O1 | 759
31 | CC1(C)C=C(n2ccccc2=O)c2cc(S(=O)(=O)NCc3ccccc3)ccc2O1 | 1000
32 | CC1(C)C=C(n2ccccc2=O)c2cc(S(=O)(=O)NCCO)ccc2O1 | 457
33 | CC1(C)C=C(n2ccccc2=O)c2cc(S(=O)(=O)N3CCOCC3)ccc2O1 | 186
34 | CC1(C)C=C(n2ccccc2=O)c2cc(S(=O)(=O)Nc3ccc(Br)cc3)ccc2O1 | 224
35 | COc1ccc(NS(=O)(=O)c2ccc3c(c2)C(n2ccccc2=O)=CC(C)(C)O3)cc1 | 245
36 | CC1(C)C=C(n2ccccc2=O)c2cc(S(=O)(=O)NC3CCCC3)ccc2O1 | 537
37 | CC1(C)C=C(n2ccccc2=O)c2cc(S(=O)(=O)F)ccc2O1 | 9.8

Continued, values first:

Row | Kd [nM] | SMILES
38 | 115 | CCN(CC)S(=O)(=O)c1ccc2c(c1)C(n1ccccc1=O)=CC(C)(C)O2
39 | 115 | CC1(C)C=C(n2ccccc2=O)c2cc(S(N)(=O)=O)ccc2O1
40 | 100 | CCNS(=O)(=O)c1ccc2c(c1)C(n1ccccc1=O)=CC(C)(C)O2
41 | 23 | CC1(C)C=C(n2ccccc2=O)c2cc(S(=O)(=O)Nc3ccccc3Br)ccc2O1
42 | 65 | CC1(C)C=C(n2ccccc2=O)c2cc(S(=O)(=O)c3ccccc3)ccc2O1
43 | 63 | CN(C)S(=O)(=O)c1ccc2c(c1)C(n1ccccc1=O)=CC(C)(C)O2
44 | 55 | CNS(=O)(=O)c1ccc2c(c1)C(n1ccccc1=O)=CC(C)(C)O2
45 | 10 | CC1(C)C=C(n2ccccc2=O)c2cc(C#N)ccc2O1 [Bimakalim]
46 | 7.1 | CC1(C)Oc2ccc(S(=O)(=O)c3ccccc3)cc2[C@@H](N2CCCC2=O)[C@@H]1O [Rilmakalim]
47 | 11 | CC1(C)C=C(n2ccccc2=O)c2cc(S(=O)(=O)Nc3ccccc3F)ccc2O1
48 | 13 | CN(c1ccccc1)S(=O)(=O)c1ccc2c(c1)C(n1ccccc1=O)=CC(C)(C)O2
49 | 7.4 | [2H]c1c([2H])c([2H])c(NS(=O)(=O)c2ccc3c(c2)C(n2ccccc2=O)=CC(C)(C)O3)c([2H])c1[2H]
50 | 2.8 | CC1(C)C=C(n2ccccc2=O)c2cc(S(=O)(=O)Oc3ccccc3)ccc2O1
51 | 8.9 | CC1(C)C=C(n2ccccc2=O)c2cc(S(=O)(=O)Nc3ccccc3)ccc2O1
